Experimental data taken from patent US20250312258A1, “2,3-PYRROLIDINEDIONE CONJUGATES AND METHODS OF USING THEREOF” (North Carolina State University, priority 2022, published 2025).
Values after ≈ are worked out from the molar mass of the structure shown. Read-outs that look alike come from different tables or passages of the source.

Legend:
S. aureus 25923 = assay: Broth microdilution MIC, S. aureus 25923; type: cell-based, Staphylococcus aureus; details: Staphylococcus aureus, 25923; read-out: MIC (S. aureus 25923)
S. aureus 29213 = assay: Broth microdilution MIC, S. aureus 29213; type: cell-based, Staphylococcus aureus; details: Staphylococcus aureus
MRSA 33591 = assay: Broth microdilution MIC, MRSA 33591; type: cell-based; details: Staphylococcus aureus, read-out: MIC (MRSA 33591)
VRSA [1] = assay: MIC against VRSA (Table 2); type: cell-based; details: Staphylococcus aureus, read-out: MIC (VRSA)
VRSA [2] = assay: MIC against VRSA strain panel (VRS/NRS strains); type: cell-based; details: Staphylococcus aureus, read-out: MIC
VRE = assay: MIC / in vitro activity against VRE strain panel; type: cell-based, Enterococcus spp.; details: Enterococcus, VRE, read-out: MIC
MRSA = assay: MIC against MRSA strain panel; type: cell-based; details: Staphylococcus aureus, the 4th table, read-out: MIC
MSSA = assay: MIC against MSSA strain panel; type: cell-based; details: Staphylococcus aureus, the 4th table, read-out: MIC

CCC1C(c2ccc(C(F)(F)F)cc2)=C(O)C(=O)N1CCCNCCCCNC (stereo not shown) [Compound 8]
MIC (S. aureus 25923): 0.25 µg/mL (≈ 0.605 µM) | MIC (S. aureus 29213; 29213, read-out: MIC (S. aureus 29213)): 0.25 to 0.5 µg/mL (≈ 0.605 to 1.21 µM) | MIC (S. aureus 29213; ATCC 29213 / MRSA, ATCC 29213 MRSA, the 4th table, read-out: MIC): 1 µg/mL (≈ 2.42 µM) | MIC (S. aureus 29213; ATCC 29213 / MRSA, ATCC 29213 MRSA, the 5th table, read-out: MIC): 1 µg/mL (≈ 2.42 µM) | MIC (MRSA 33591): 0.5 µg/mL (≈ 1.21 µM) | MIC (VRSA [1]): 2 µg/mL (≈ 4.84 µM) | MIC (VRSA [2]; NRS 1 / VRSA, NRS-1 (VRSA), the 3rd table): 4 µg/mL (≈ 9.67 µM) | MIC (VRSA [2]; NRS 1 / VRSA, NRS-1 VRSA, the 5th table): 4 µg/mL (≈ 9.67 µM) | MIC (VRSA [2]; NRS 2 / VRSA, NRS-2 VRSA, the 5th table): 2 µg/mL (≈ 4.84 µM) | MIC (VRSA [2]; VRSA, VRS-1 (VRSA), the 3rd table): 32 µg/mL (≈ 77.4 µM) | MIC (VRSA [2]; VRSA, VRS-1 VRSA, the 5th table): 32 µg/mL (≈ 77.4 µM) | MIC (VRSA [2]; VRSA, VRS-2 (VRSA), the 3rd table): 8 µg/mL (≈ 19.3 µM) | MIC (VRSA [2]; VRSA, VRS-2 VRSA, the 5th table): 8 µg/mL (≈ 19.3 µM) | MIC (VRSA [2]; VRSA, VRS-3a VRSA, the 5th table): 4 µg/mL (≈ 9.67 µM) | MIC (VRSA [2]; VRSA, VRS-3b VRSA, the 5th table): > 64 µg/mL | MIC (VRSA [2]; VRSA, VRS-4 (VRSA), the 3rd table): 16 µg/mL (≈ 38.7 µM) | MIC (VRSA [2]; VRSA, VRS-4 VRSA, the 5th table): 16 µg/mL (≈ 38.7 µM) | MIC (VRSA [2]; VRSA, VRS-5 VRSA, the 5th table): 32 µg/mL (≈ 77.4 µM) | MIC (VRSA [2]; VRSA, VRS-6 VRSA, the 5th table): 32 µg/mL (≈ 77.4 µM) | MIC (VRSA [2]; VRSA, VRS-7 VRSA, the 5th table): 32 µg/mL (≈ 77.4 µM) | MIC (VRSA [2]; VRSA, VRS-8 VRSA, the 5th table): 64 µg/mL (≈ 155 µM) | MIC (VRSA [2]; VRSA, VRS-9 VRSA, the 5th table): 64 µg/mL (≈ 155 µM) | MIC (VRSA [2]; VRSA, VRS-10 VRSA, the 5th table): 32 µg/mL (≈ 77.4 µM) | MIC (VRSA [2]; VRSA, VRS-11a VRSA, the 5th table): 64 µg/mL (≈ 155 µM) | MIC (VRSA [2]; VRSA, VRS-11b VRSA, the 5th table): 64 µg/mL (≈ 155 µM) | MIC (VRE; 1593 (VRE), the 3rd table): 32 µg/mL (≈ 77.4 µM) | MIC (VRE; 1593 VRE, the 4th table): 32 µg/mL (≈ 77.4 µM) | MIC (VRE; 1751 (VRE), the 3rd table): 16 µg/mL (≈ 38.7 µM) | MIC (VRE; 1751 VRE, the 6th table): 16 µg/mL (≈ 38.7 µM) | MIC (VRE; 1772 VRE, the 6th table): 32 µg/mL (≈ 77.4 µM) | MIC (VRE; 1946 VRE, the 6th table): 32 µg/mL (≈ 77.4 µM) | MIC (VRE; 2059 VRE, the 6th table): 32 µg/mL (≈ 77.4 µM) | MIC (VRE; 2431 (VRE), the 3rd table): 32 µg/mL (≈ 77.4 µM) | MIC (VRE; 2431 VRE, the 6th table): 32 µg/mL (≈ 77.4 µM) | MIC (VRE; 2574 VRE, the 6th table): 32 µg/mL (≈ 77.4 µM) | MIC (VRE; 3053 VRE, the 6th table): 32 µg/mL (≈ 77.4 µM) | MIC (VRE; 3183 (VRE), the 3rd table): 16 µg/mL (≈ 38.7 µM) | MIC (VRE; 3183 VRE, the 6th table): 16 µg/mL (≈ 38.7 µM) | MIC (VRE; 3190 VRE, the 6th table): 32 µg/mL (≈ 77.4 µM) | MIC (VRE; 3191 VRE, the 6th table): 32 µg/mL (≈ 77.4 µM) | MIC (VRE; 3222 (VRE, the 3rd table)): 16 µg/mL (≈ 38.7 µM) | MIC (VRE; 3222 VRE, the 6th table): 16 µg/mL (≈ 38.7 µM) | MIC (VRE; 3235 VRE, the 6th table): 16 µg/mL (≈ 38.7 µM) | MIC (VRE; 3239 VRE, the 6th table): 32 µg/mL (≈ 77.4 µM) | MIC (VRE; 3241 VRE, the 6th table): 32 µg/mL (≈ 77.4 µM) | MIC (VRE; 3623 VRE, the 6th table): 32 µg/mL (≈ 77.4 µM) | MIC (MRSA; 6215 MRSA): 1 µg/mL (≈ 2.42 µM) | MIC (MRSA; 6217 MRSA): 0.5 µg/mL (≈ 1.21 µM) | MIC (MRSA; 6218 MRSA): 1 µg/mL (≈ 2.42 µM) | MIC (MRSA; 6220 MRSA): 1 µg/mL (≈ 2.42 µM) | MIC (MRSA; 6231 MRSA): 0.5 µg/mL (≈ 1.21 µM) | MIC (MRSA; AR-978 MRSA): 1 µg/mL (≈ 2.42 µM) | MIC (MRSA; AR-979 MRSA): 0.5 µg/mL (≈ 1.21 µM) | MIC (MRSA; AR-993 MRSA): 1 µg/mL (≈ 2.42 µM) | MIC (MRSA; AR-997 MRSA): 1 µg/mL (≈ 2.42 µM) | MIC (MSSA; VGP16-94 MSSA): 0.5 µg/mL (≈ 1.21 µM) | MIC (MSSA; VGP16-95 MSSA): 1 µg/mL (≈ 2.42 µM) | MIC (MSSA; VGP16-96 MSSA): 0.5 µg/mL (≈ 1.21 µM) | MIC (MSSA; VGP16-97 MSSA): 0.5 µg/mL (≈ 1.21 µM) | MIC (MSSA; VGP16-98 MSSA): 0.5 µg/mL (≈ 1.21 µM) | MIC (MSSA; VGP16-99 MSSA): 1 µg/mL (≈ 2.42 µM)
